Experiment [1] deals with T1, AR-VP16 (Homo sapiens, UniProt P10275).
T1 sequence (P10275 560-920 limits assumed): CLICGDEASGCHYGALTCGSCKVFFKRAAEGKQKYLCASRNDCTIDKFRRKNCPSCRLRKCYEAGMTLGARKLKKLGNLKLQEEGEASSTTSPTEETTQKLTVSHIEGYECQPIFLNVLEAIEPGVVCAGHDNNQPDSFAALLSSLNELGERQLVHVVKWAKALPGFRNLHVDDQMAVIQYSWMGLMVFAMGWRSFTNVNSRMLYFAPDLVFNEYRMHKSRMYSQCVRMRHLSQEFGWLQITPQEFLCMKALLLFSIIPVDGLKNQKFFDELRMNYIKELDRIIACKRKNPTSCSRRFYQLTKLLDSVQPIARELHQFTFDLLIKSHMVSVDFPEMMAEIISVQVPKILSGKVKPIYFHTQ
In words: AR-VP16 DNA Binding Assay, agonist mode (HepG2 cells). The class given is cell-based. The note with it: Emax >20x DMSO control = agonist.

For experiment [2], the target named is T1, AR-VP16. In words: AR-VP16 DNA Binding Assay, antagonist mode (HepG2 cells, 0.1 nM R1881). It counts as cell-based. The essentials:
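HepG2 cells transiently transfected with AR-VP16 (Lipofectin), incubated overnight, then treated with compound in RPMI with charcoal-stripped serum. Antagonist mode adds R1881 at 0.1 nM final. Cells lysed after 48 h incubation for read-out.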

Where only a bound is given, the exact number is not on record here.

Regarding `N#Cc1ncc(N2C(=O)C3(CCC3)N(c3ccc(C(=O)NCCN4CCOCC4)c(F)c3)C2=S)cc1C(F)(F)F` [Compound 242, 4-(7-(6-Cyano-5-(trifluoromethyl)pyridin-3-yl)-8-oxo-6-thioxo-5,7-diazaspiro[3.4]octan-5-yl)-2-fluoro-N-(2-morpholinoethyl)benzamide], on AR-VP16 [1], the “ARVP16 DNA Binding Assay (Agonist mode): Agonist?” value (from here on “ARVP16 DNA Binding Assay”) is “No (Agonist defined as a compound whose Emax in the ARVP16 DNA Binding Assay (Agonist mode) is >20x DMSO control)”. Besides, the half-maximal inhibitory concentration (IC50) (as a rule, the concentration that inhibits the measured activity by half) at AR-VP16 [2] is less than 1000 nM.
`CN1CCN(CCNC(=O)c2ccc(N3C(=S)N(c4cnc(C#N)c(C(F)(F)F)c4)C(=O)C34CCC4)cc2F)CC1` [Compound 243, 4-(7-(6-Cyano-5-(trifluoromethyl)pyridin-3-yl)-8-oxo-6-thioxo-5,7-diazaspiro[3.4]octan-5-yl)-2-fluoro-N-(2-(4-methylpiperazin-1-yl)ethyl)benzamide]: on AR-VP16 [1], the “ARVP16 DNA Binding Assay” value is given as “No (Agonist defined as a compound whose Emax in the ARVP16 DNA Binding Assay (Agonist mode) is >20x DMSO control)”. In addition, on AR-VP16 [2], the half-maximal inhibitory concentration (IC50) is more than 1000 nM.
Regarding `N#Cc1ncc(N2C(=O)C3(CCC3)N(c3ccc(C(=O)NCCc4cccnc4)c(F)c3)C2=S)cc1C(F)(F)F` [Compound 244, 4-(7-(6-Cyano-5-(trifluoromethyl)pyridin-3-yl)-8-oxo-6-thioxo-5,7-diazaspiro[3.4]octan-5-yl)-2-fluoro-N-(2-(pyridin-3-yl)ethyl)benzamide], the “ARVP16 DNA Binding Assay” value on AR-VP16 [1] is given as “No (Agonist defined as a compound whose Emax in the ARVP16 DNA Binding Assay (Agonist mode) is >20x DMSO control)”. On AR-VP16 [2], this molecule gave an IC50 of less than 1000 nM.
Consider `CCOC(=O)CNC(=O)c1ccc(N2C(=S)N(c3cnc(C#N)c(C(F)(F)F)c3)C(=O)C23CCC3)cc1F` [Compound 245, Ethyl 2-(4-(7-(6-cyano-5-(trifluoromethyl)pyridin-3-yl)-8-oxo-6-thioxo-5,7-diazaspiro[3.4]octan-5-yl)-2-fluorobenzamido)acetate], for which, at AR-VP16 [1], the “ARVP16 DNA Binding Assay” value is “No (Agonist defined as a compound whose Emax in the ARVP16 DNA Binding Assay (Agonist mode) is >20x DMSO control)”. At AR-VP16 [2], this molecule registered a half-inhibitory concentration (IC50) of more than 1000 nM.
As for `CCOC(=O)CCNC(=O)c1ccc(N2C(=S)N(c3cnc(C#N)c(C(F)(F)F)c3)C(=O)C23CCC3)cc1F` [Compound 246, Ethyl 3-(4-(7-(6-cyano-5-(trifluoromethyl)pyridin-3-yl)-8-oxo-6-thioxo-5,7-diazaspiro[3.4]octan-5-yl)-2-fluorobenzamido)propanoate], the “ARVP16 DNA Binding Assay” value on AR-VP16 [1] is on record as “No (Agonist defined as a compound whose Emax in the ARVP16 DNA Binding Assay (Agonist mode) is >20x DMSO control)”. Further, the IC50 on AR-VP16 [2] was more than 1000 nM.
The like results for `CCOC(=O)CCCNC(=O)c1ccc(N2C(=S)N(c3cnc(C#N)c(C(F)(F)F)c3)C(=O)C23CCC3)cc1F` [Compound 247, Ethyl 4-(4-(7-(6-cyano-5-(trifluoromethyl)pyridin-3-yl)-8-oxo-6-thioxo-5,7-diazaspiro[3.4]octan-5-yl)-2-fluorobenzamido)butanoate] were, in that order, “No (Agonist defined as a compound whose Emax in the ARVP16 DNA Binding Assay (Agonist mode) is >20x DMSO control)” and more than 1000 nM.
Regarding `COCCCNC(=O)c1ccc(N2C(=S)N(c3cnc(C#N)c(C(F)(F)F)c3)C(=O)C23CCC3)cc1F` [Compound 249, 4-(7-(6-Cyano-5-(trifluoromethyl)pyridin-3-yl)-8-oxo-6-thioxo-5,7-diazaspiro[3.4]octan-5-yl)-2-fluoro-N-(3-methoxypropyl)benzamide], the “ARVP16 DNA Binding Assay” value on AR-VP16 [1] is “No (Agonist defined as a compound whose Emax in the ARVP16 DNA Binding Assay (Agonist mode) is >20x DMSO control)”. In addition, the IC50 at AR-VP16 [2] is less than 1000 nM.
`COCCN(C)C(=O)c1ccc(N2C(=S)N(c3cnc(C#N)c(C(F)(F)F)c3)C(=O)C23CCC3)cc1F` [Compound 250, 4-(7-(6-Cyano-5-(trifluoromethyl)pyridin-3-yl)-8-oxo-6-thioxo-5,7-diazaspiro[3.4]octan-5-yl)-2-fluoro-N-(2-methoxyethyl)-N-methylbenzamide]: at AR-VP16 [1], the “ARVP16 DNA Binding Assay” value was “No (Agonist defined as a compound whose Emax in the ARVP16 DNA Binding Assay (Agonist mode) is >20x DMSO control)”. The same molecule registered an IC50 at AR-VP16 [2] of more than 1000 nM.
`N#Cc1ncc(N2C(=O)C3(CCC3)N(c3ccc(F)c(C(=O)NCCN4CCCC4)c3)C2=S)cc1C(F)(F)F` [Compound 251, 5-(7-(6-Cyano-5-(trifluoromethyl)pyridin-3-yl)-8-oxo-6-thioxo-5,7-diazaspiro[3.4]octan-5-yl)-2-fluoro-N-(2-(pyrrolidin-1-yl)ethyl)benzamide]: the “ARVP16 DNA Binding Assay” value on AR-VP16 [1] is “No (Agonist defined as a compound whose Emax in the ARVP16 DNA Binding Assay (Agonist mode) is >20x DMSO control)”. This molecule also registered an IC50 at AR-VP16 [2] of more than 1000 nM.
Regarding `N#Cc1ncc(N2C(=O)C3(CCC3)N(c3ccc(F)c(C(=O)NCCCN4CCCC4)c3)C2=S)cc1C(F)(F)F` [Compound 252, 5-(7-(6-Cyano-5-(trifluoromethyl)pyridin-3-yl)-8-oxo-6-thioxo-5,7-diazaspiro[3.4]octan-5-yl)-2-fluoro-N-(3-(pyrrolidin-1-yl)propyl)benzamide], the “ARVP16 DNA Binding Assay” value at AR-VP16 [1] is given as “No (Agonist defined as a compound whose Emax in the ARVP16 DNA Binding Assay (Agonist mode) is >20x DMSO control)”. The molecule further registered an IC50 at AR-VP16 [2] of less than 1000 nM.
The like results for `N#Cc1ncc(N2C(=O)C3(CCC3)N(c3ccc(F)c(C(=O)NCCN4CCOCC4)c3)C2=S)cc1C(F)(F)F` [Compound 253, 5-(7-(6-Cyano-5-(trifluoromethyl)pyridin-3-yl)-8-oxo-6-thioxo-5,7-diazaspiro[3.4]octan-5-yl)-2-fluoro-N-(2-morpholinoethyl)benzamide] were, in that order, “No (Agonist defined as a compound whose Emax in the ARVP16 DNA Binding Assay (Agonist mode) is >20x DMSO control)” and more than 1000 nM.
`CN1CCN(CCNC(=O)c2cc(N3C(=S)N(c4cnc(C#N)c(C(F)(F)F)c4)C(=O)C34CCC4)ccc2F)CC1` [Compound 254, 5-(7-(6-Cyano-5-(trifluoromethyl)pyridin-3-yl)-8-oxo-6-thioxo-5,7-diazaspiro[3.4]octan-5-yl)-2-fluoro-N-(2-(4-methylpiperazin-1-yl)ethyl)benzamide]: the “ARVP16 DNA Binding Assay” value at AR-VP16 [1] is given as “No (Agonist defined as a compound whose Emax in the ARVP16 DNA Binding Assay (Agonist mode) is >20x DMSO control)”. The same molecule gave an IC50 at AR-VP16 [2] of more than 1000 nM.
Take `N#Cc1ncc(N2C(=O)C3(CCC3)N(c3ccc(C(=O)Nc4ccccc4)c(F)c3)C2=S)cc1C(F)(F)F` [Compound 255, 4-(7-(6-Cyano-5-(trifluoromethyl)pyridin-3-yl)-8-oxo-6-thioxo-5,7-diazaspiro[3.4]octan-5-yl)-2-fluoro-N-phenylbenzamide]: the “ARVP16 DNA Binding Assay” value at AR-VP16 [1] is “No (Agonist defined as a compound whose Emax in the ARVP16 DNA Binding Assay (Agonist mode) is >20x DMSO control)”. In addition, the IC50 at AR-VP16 [2] is less than 1000 nM.
For the molecule `Cn1ncc(Br)c1CCNC(=O)c1ccc(N2C(=S)N(c3cnc(C#N)c(C(F)(F)F)c3)C(=O)C23CCC3)cc1F` [Compound 256, N-(2-(4-Bromo-1-methyl-1H-pyrazol-5-yl)ethyl)-4-(7-(6-cyano-5-(trifluoromethyl)pyridin-3-yl)-8-oxo-6-thioxo-5,7-diazaspiro[3.4]octan-5-yl)-2-fluorobenzamide], the “ARVP16 DNA Binding Assay” value at AR-VP16 [1] was “No (Agonist defined as a compound whose Emax in the ARVP16 DNA Binding Assay (Agonist mode) is >20x DMSO control)”. The molecule also registered an IC50 at AR-VP16 [2] of less than 1000 nM.
The matching figures for `N#Cc1ncc(N2C(=O)C3(CCC3)N(c3ccc(C(=O)NCCc4ccccc4)c(F)c3)C2=S)cc1C(F)(F)F` [Compound 257, 4-(7-(6-Cyano-5-(trifluoromethyl)pyridin-3-yl)-8-oxo-6-thioxo-5,7-diazaspiro[3.4]octan-5-yl)-2-fluoro-N-phenethylbenzamide]: “No (Agonist defined as a compound whose Emax in the ARVP16 DNA Binding Assay (Agonist mode) is >20x DMSO control)” and less than 1000 nM.
Consider `N#Cc1ncc(N2C(=O)C3(CCC3)N(c3ccc(C(=O)NCc4ccncc4)c(F)c3)C2=S)cc1C(F)(F)F` [Compound 259, 4-(7-(6-Cyano-5-(trifluoromethyl)pyridin-3-yl)-8-oxo-6-thioxo-5,7-diazaspiro[3.4]octan-5-yl)-2-fluoro-N-(pyridin-4-ylmethyl)benzamide], for which, at AR-VP16 [1], the “ARVP16 DNA Binding Assay” value is on record as “No (Agonist defined as a compound whose Emax in the ARVP16 DNA Binding Assay (Agonist mode) is >20x DMSO control)”. At AR-VP16 [2], the half-inhibitory concentration (IC50) is less than 1000 nM.
Turning to `N#Cc1ncc(N2C(=O)C3(CCC3)N(c3ccc(C(=O)Nc4ccccn4)c(F)c3)C2=S)cc1C(F)(F)F` [Compound 261, 4-(7-(6-Cyano-5-(trifluoromethyl)pyridin-3-yl)-8-oxo-6-thioxo-5,7-diazaspiro[3.4]octan-5-yl)-2-fluoro-N-(pyridin-2-yl)benzamide], on AR-VP16 [1], the “ARVP16 DNA Binding Assay” value was “No (Agonist defined as a compound whose Emax in the ARVP16 DNA Binding Assay (Agonist mode) is >20x DMSO control)”. In addition, the 50% inhibitory concentration (IC50) on AR-VP16 [2] is less than 1000 nM.
Turning to `N#Cc1ncc(N2C(=O)C3(CCC3)N(c3ccc(C(=O)Nc4cccnc4)c(F)c3)C2=S)cc1C(F)(F)F` [Compound 262, 4-(7-(6-Cyano-5-(trifluoromethyl)pyridin-3-yl)-8-oxo-6-thioxo-5,7-diazaspiro[3.4]octan-5-yl)-2-fluoro-N-(pyridin-3-yl)benzamide], on AR-VP16 [1], the “ARVP16 DNA Binding Assay” value was “No (Agonist defined as a compound whose Emax in the ARVP16 DNA Binding Assay (Agonist mode) is >20x DMSO control)”. The concentration for half-maximal inhibition (IC50) on AR-VP16 [2] is less than 1000 nM.

These data come from US9108944B2, “Androgen receptor modulators and uses thereof” (ARAGON PHARMACEUTICALS, INC., priority 2010, dated 2015).
